pKi: −log10 of the molar value.
Experiments:
[1] = molecular target: Muscarinic acetylcholine receptor M3 (Rattus norvegicus, UniProt P08483); assay: Displacement of [3H]N-methylscopolamine from muscarinic M3 receptor in rat submandibular gland; format: tissue-based
[2] = molecular target: T1, Muscarinic acetylcholine receptor M2 (Rattus norvegicus, UniProt P10980); assay: Displacement of [3H]N-methylscopolamine from muscarinic M2 receptor in rat heart
T1 sequence (P10980 whole entry): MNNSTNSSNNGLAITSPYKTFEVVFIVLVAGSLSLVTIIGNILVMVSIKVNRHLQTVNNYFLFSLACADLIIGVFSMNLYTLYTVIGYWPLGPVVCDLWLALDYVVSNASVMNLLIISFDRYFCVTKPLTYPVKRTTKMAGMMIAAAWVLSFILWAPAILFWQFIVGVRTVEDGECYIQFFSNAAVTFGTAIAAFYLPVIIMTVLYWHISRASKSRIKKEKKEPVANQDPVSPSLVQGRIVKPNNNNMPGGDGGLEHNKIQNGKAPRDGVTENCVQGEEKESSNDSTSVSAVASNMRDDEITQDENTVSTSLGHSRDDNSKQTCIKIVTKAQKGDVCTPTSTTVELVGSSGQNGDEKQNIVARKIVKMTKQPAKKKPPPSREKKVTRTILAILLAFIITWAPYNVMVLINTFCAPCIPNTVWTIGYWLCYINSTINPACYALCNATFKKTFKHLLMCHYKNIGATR

Chain of Muscarinic acetylcholine receptor M3 (P08483 whole entry): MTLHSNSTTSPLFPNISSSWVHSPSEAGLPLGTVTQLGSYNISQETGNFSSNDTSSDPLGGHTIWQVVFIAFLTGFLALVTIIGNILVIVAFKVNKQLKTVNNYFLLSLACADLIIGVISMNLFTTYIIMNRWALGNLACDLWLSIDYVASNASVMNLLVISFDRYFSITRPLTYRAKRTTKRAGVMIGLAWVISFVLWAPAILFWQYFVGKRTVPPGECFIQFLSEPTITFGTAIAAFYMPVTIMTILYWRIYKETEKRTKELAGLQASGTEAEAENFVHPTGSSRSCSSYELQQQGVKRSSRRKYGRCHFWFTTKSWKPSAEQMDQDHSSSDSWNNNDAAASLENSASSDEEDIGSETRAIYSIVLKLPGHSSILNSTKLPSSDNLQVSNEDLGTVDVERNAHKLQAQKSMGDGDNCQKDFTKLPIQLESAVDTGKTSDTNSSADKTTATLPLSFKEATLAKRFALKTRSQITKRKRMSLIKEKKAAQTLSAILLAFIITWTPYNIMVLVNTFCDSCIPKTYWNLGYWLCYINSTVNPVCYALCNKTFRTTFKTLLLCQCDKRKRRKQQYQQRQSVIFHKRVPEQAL

SMILES	pKi [1]	pKi [2]
O=C(N[C@H]1[C@@H]2CN(CCCc3ccccc3)C[C@@H]21)C(O)(c1ccccc1)C1CCCC1 (some centres undefined)	6.11	5.58
O=C(N[C@H]1[C@@H]2CN(Cc3ccccc3)C[C@@H]21)C(O)(c1ccccc1)C1CCCCCC1 (some centres undefined)	8.17	6.46
O=C(N[C@H]1[C@@H]2CN(Cc3ccccc3)C[C@@H]21)C(O)c1ccccc1 (some centres undefined)	< 6.00	< 6.00
CC(c1ccccc1)N1C[C@@H]2[C@H](C1)[C@H]2NC(=O)C(O)(c1ccccc1)C1CCCC1 (some centres undefined)	7.60	6.20
CC(c1ccccc1)N1C[C@@H]2[C@H](C1)[C@H]2NC(=O)C(O)(c1ccccc1)C1CCCCCC1 (some centres undefined)	8.74	7.41
O=C(N[C@H]1[C@@H]2CN(Cc3cccs3)C[C@@H]21)C(O)(c1ccccc1)C1CCCC1 (some centres undefined)	6.28	5.40
Cc1ccc(C(C)N2C[C@@H]3[C@H](C2)[C@H]3NC(=O)C(O)(c2ccccc2)C2CCCC2)cc1 (some centres undefined)	7.23	5.91
O=C(N[C@H]1[C@@H]2CN(CCc3ccc(Cl)cc3)C[C@@H]21)C(O)(c1ccccc1)C1CCCC1 (some centres undefined)	7.50	6.53
COC(=O)c1ccc(CCN2C[C@@H]3[C@H](C2)[C@H]3NC(=O)C(O)(c2ccccc2)C2CCCC2)cc1 (some centres undefined)	7.36	6.27
O=C(N[C@H]1[C@@H]2CN(CCc3ccc4c(c3)OCO4)C[C@@H]21)C(O)(c1ccccc1)C1CCCC1 (some centres undefined)	7.70	6.56
O=C(N[C@H]1[C@@H]2CN(Cc3ccc4ccccc4c3)C[C@@H]21)C(O)(c1ccccc1)C1CCCC1 (some centres undefined)	7.38	6.11
O=C(N[C@H]1[C@@H]2CN(CCc3ccccc3)C[C@@H]21)C(O)(c1ccccc1)C1CCCC1 (some centres undefined)	8.03	6.47
CC(C)=CCCN1C[C@@H]2[C@H](C1)[C@H]2NC(=O)C(O)(c1ccccc1)C1CCCC1 (some centres undefined)	7.48	5.86
CC(C)=CCCN1C[C@@H]2[C@H](C1)[C@H]2NC(=O)[C@@](O)(c1ccccc1)C1CCCC1	7.15	5.94
O=C(N[C@H]1[C@@H]2CN(Cc3ccccc3)C[C@@H]21)C(O)(c1ccccc1)C1CCCC1 (some centres undefined)	7.02	5.85
O=C(N[C@H]1[C@@H]2CN(CCc3ccc4c(c3)OCO4)C[C@@H]21)[C@](O)(c1ccccc1)C1CCCC1	7.91	6.19
O=C(N[C@H]1[C@@H]2CN(Cc3ccccc3)C[C@@H]21)C(O)(c1ccccc1)C1CCCCC1 (some centres undefined)	7.50	6.03
Cc1ccc(CCN2C[C@@H]3[C@H](C2)[C@H]3NC(=O)C(O)(c2ccccc2)C2CCCC2)cc1C (some centres undefined)	7.36	6.09
CC(c1ccccc1)N1C[C@@H]2[C@H](C1)[C@H]2NC(=O)C(O)(c1ccccc1)C1CCCCC1 (some centres undefined)	8.23	6.81
NC(=O)C(c1ccccc1)(c1ccccc1)[C@@H]1CCN(CCc2ccc3c(c2)CCO3)C1 [DARIFENACIN]		7.20

Source: ChEMBL document CHEMBL1139761, “Synthesis and optimization of novel and selective muscarinic M(3) receptor antagonists” (Bioorg Med Chem Lett, 2007)
